According to PubChem BioAssay (NCI):
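Results reflect a 48-hour exposure of cells in 96-well plates to compound at five concentrations. At the GI50, growth is halved. Definition used: TGI = concentration required for complete inhibition of growth.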

Experiments:
Assay in all cases: NCI anticancer screen, dose series, 48 h
SF-295 CNS = tested on: SF-295 CNS
HOP-92 NSCLC = tested on: HOP-92 NSCLC
HOP-62 NSCLC = tested on: HOP-62 NSCLC
SN12C renal = tested on: SN12C renal
HCT-116 colon = tested on: HCT-116 colon
SK-MEL-5 melanoma = tested on: SK-MEL-5 melanoma
EKVX NSCLC = tested on: EKVX NSCLC
UACC-62 melanoma = tested on: UACC-62 melanoma
TK-10 renal = tested on: TK-10 renal
MDA-MB-435 = tested on: MDA-MB-435
NCI-H23 lung = tested on: NCI-H23 lung
HS 578T breast = tested on: HS 578T breast
HT29 colon = tested on: HT29 colon
SF-268 CNS = tested on: SF-268 CNS
HCT-15 colon = tested on: HCT-15 colon
HCC-2998 colon = tested on: HCC-2998 colon
NCI/ADR-RES ovarian = tested on: NCI/ADR-RES ovarian
K-562 leukemia = tested on: K-562 leukemia
BT-549 breast = tested on: BT-549 breast
HL-60(TB) leukemia = tested on: HL-60(TB) leukemia
NCI-H460 lung = tested on: NCI-H460 lung
T-47D breast = tested on: T-47D breast
DU-145 prostate = tested on: DU-145 prostate
SW-620 colon = tested on: SW-620 colon
COLO 205 colon = tested on: COLO 205 colon
OVCAR-8 ovarian = tested on: OVCAR-8 ovarian
OVCAR-3 ovarian = tested on: OVCAR-3 ovarian
A498 renal = tested on: A498 renal
RXF 393 renal = tested on: RXF 393 renal
NCI-H226 lung = tested on: NCI-H226 lung
SK-OV-3 ovarian = tested on: SK-OV-3 ovarian
MOLT-4 leukemia = tested on: MOLT-4 leukemia
MDA-MB-231 breast = tested on: MDA-MB-231 breast
UO-31 renal = tested on: UO-31 renal
SK-MEL-2 melanoma = tested on: SK-MEL-2 melanoma
SK-MEL-28 melanoma = tested on: SK-MEL-28 melanoma
LOX IMVI melanoma = tested on: LOX IMVI melanoma
IGROV1 ovarian = tested on: IGROV1 ovarian
SF-539 CNS = tested on: SF-539 CNS
MCF7 breast = tested on: MCF7 breast
RPMI-8226 leukemia = tested on: RPMI-8226 leukemia
KM12 colon = tested on: KM12 colon
SNB-75 CNS = tested on: SNB-75 CNS
MALME-3M melanoma = tested on: MALME-3M melanoma
A549 NSCLC = tested on: A549 NSCLC
SNB-19 CNS = tested on: SNB-19 CNS
CAKI-1 renal = tested on: CAKI-1 renal
OVCAR-5 ovarian = tested on: OVCAR-5 ovarian
PC-3 prostate = tested on: PC-3 prostate
NCI-H522 lung = tested on: NCI-H522 lung
OVCAR-4 ovarian = tested on: OVCAR-4 ovarian
CCRF-CEM leukemia = tested on: CCRF-CEM leukemia
ACHN renal = tested on: ACHN renal
U251 CNS = tested on: U251 CNS
786-0 renal = tested on: 786-0 renal
M14 melanoma = tested on: M14 melanoma

How did the GI50 (SF-295 CNS) turn out when `N#Cc1c(-c2ccc(Cl)cc2)csc1NC(=O)Nc1ccc(Cl)c(C(F)(F)F)c1` was run?
Its GI50 is 326 nM.

What about the TGI (SF-295 CNS) of the same molecule?
Its TGI is 1870 nM.

And the GI50 (HOP-92 NSCLC)?
Its GI50 is 222 nM.

And the TGI (HOP-92 NSCLC)?
Its TGI is 2090 nM.

And the GI50 (HOP-62 NSCLC)?
The GI50 was 1010 nM.

What about the TGI (HOP-62 NSCLC) of the same molecule?
Its TGI is 4420 nM.

And the GI50 (SN12C renal)?
The GI50 was 348 nM.

And the TGI (SN12C renal)?
The TGI was greater than 50000 nM.

What about the GI50 (HCT-116 colon) of the same molecule?
Its GI50 is 224 nM.

What about the TGI (HCT-116 colon) of the same molecule?
The TGI was 6420 nM.

And the GI50 (SK-MEL-5 melanoma)?
The GI50 was 639 nM.

And the TGI (SK-MEL-5 melanoma)?
Its TGI is 3700 nM.

What about the GI50 (EKVX NSCLC) of the same molecule?
Its GI50 is 385 nM.

And the TGI (EKVX NSCLC)?
The TGI was greater than 50000 nM.

What about the GI50 (UACC-62 melanoma) of the same molecule?
Its GI50 is 326 nM.

What about the TGI (UACC-62 melanoma) of the same molecule?
The TGI was 8640 nM.

And the GI50 (TK-10 renal)?
The GI50 was 757 nM.

And the TGI (TK-10 renal)?
Its TGI is 11100 nM.

And the GI50 (MDA-MB-435)?
Its GI50 is 1490 nM.

What about the TGI (MDA-MB-435) of the same molecule?
The TGI was greater than 50000 nM.

What about the GI50 (NCI-H23 lung) of the same molecule?
The GI50 was 201 nM.

And the TGI (NCI-H23 lung)?
The TGI was 16700 nM.

And the GI50 (HS 578T breast)?
The GI50 was 1360 nM.

And the TGI (HS 578T breast)?
Its TGI is 8240 nM.

What about the GI50 (HT29 colon) of the same molecule?
The GI50 was 560 nM.

And the TGI (HT29 colon)?
Its TGI is 3540 nM.

What about the GI50 (SF-268 CNS) of the same molecule?
Its GI50 is 1290 nM.

And the TGI (SF-268 CNS)?
The TGI was 21300 nM.

What about the GI50 (HCT-15 colon) of the same molecule?
Its GI50 is 208 nM.

What about the TGI (HCT-15 colon) of the same molecule?
Its TGI is 5400 nM.

And the GI50 (HCC-2998 colon)?
Its GI50 is 1330 nM.

And the TGI (HCC-2998 colon)?
The TGI was 17100 nM.

What about the GI50 (NCI/ADR-RES ovarian) of the same molecule?
Its GI50 is 536 nM.

What about the TGI (NCI/ADR-RES ovarian) of the same molecule?
The TGI was 13400 nM.

And the GI50 (K-562 leukemia)?
The GI50 was 177 nM.

And the TGI (K-562 leukemia)?
Its TGI is 6270 nM.

What about the GI50 (BT-549 breast) of the same molecule?
The GI50 was 1210 nM.

What about the TGI (BT-549 breast) of the same molecule?
The TGI was 4540 nM.

And the GI50 (HL-60(TB) leukemia)?
Its GI50 is 793 nM.

What about the TGI (HL-60(TB) leukemia) of the same molecule?
Its TGI is 2110 nM.

And the GI50 (NCI-H460 lung)?
The GI50 was 209 nM.

What about the TGI (NCI-H460 lung) of the same molecule?
Its TGI is 1200 nM.

And the GI50 (T-47D breast)?
Its GI50 is 106 nM.

What about the TGI (T-47D breast) of the same molecule?
Its TGI is 696 nM.

What about the GI50 (DU-145 prostate) of the same molecule?
The GI50 was 527 nM.

What about the TGI (DU-145 prostate) of the same molecule?
Its TGI is 11200 nM.

What about the GI50 (SW-620 colon) of the same molecule?
Its GI50 is 255 nM.

What about the TGI (SW-620 colon) of the same molecule?
The TGI was 2950 nM.

And the GI50 (COLO 205 colon)?
Its GI50 is 895 nM.

And the TGI (COLO 205 colon)?
Its TGI is 2580 nM.

And the GI50 (OVCAR-8 ovarian)?
The GI50 was 388 nM.

And the TGI (OVCAR-8 ovarian)?
Its TGI is 15700 nM.

And the GI50 (OVCAR-3 ovarian)?
The GI50 was 262 nM.

What about the TGI (OVCAR-3 ovarian) of the same molecule?
Its TGI is 1470 nM.

And the GI50 (A498 renal)?
The GI50 was 536 nM.

What about the TGI (A498 renal) of the same molecule?
The TGI was 5680 nM.

And the GI50 (RXF 393 renal)?
Its GI50 is 2050 nM.

What about the TGI (RXF 393 renal) of the same molecule?
Its TGI is 17400 nM.

And the GI50 (NCI-H226 lung)?
Its GI50 is 1120 nM.

What about the TGI (NCI-H226 lung) of the same molecule?
Its TGI is 12400 nM.

And the GI50 (SK-OV-3 ovarian)?
Its GI50 is 2490 nM.

What about the TGI (SK-OV-3 ovarian) of the same molecule?
The TGI was 14400 nM.

And the GI50 (MOLT-4 leukemia)?
Its GI50 is 605 nM.

And the TGI (MOLT-4 leukemia)?
The TGI was 5060 nM.

What about the GI50 (MDA-MB-231 breast) of the same molecule?
Its GI50 is 995 nM.

And the TGI (MDA-MB-231 breast)?
The TGI was 6240 nM.

And the GI50 (UO-31 renal)?
Its GI50 is 1470 nM.

What about the TGI (UO-31 renal) of the same molecule?
The TGI was greater than 50000 nM.

And the GI50 (SK-MEL-2 melanoma)?
The GI50 was 872 nM.

What about the TGI (SK-MEL-2 melanoma) of the same molecule?
The TGI was 7350 nM.

What about the GI50 (SK-MEL-28 melanoma) of the same molecule?
Its GI50 is 1850 nM.

And the TGI (SK-MEL-28 melanoma)?
The TGI was 40100 nM.

What about the GI50 (LOX IMVI melanoma) of the same molecule?
The GI50 was 1140 nM.

What about the TGI (LOX IMVI melanoma) of the same molecule?
Its TGI is 7380 nM.

What about the GI50 (IGROV1 ovarian) of the same molecule?
The GI50 was 626 nM.

And the TGI (IGROV1 ovarian)?
Its TGI is 18700 nM.

What about the GI50 (SF-539 CNS) of the same molecule?
Its GI50 is 1500 nM.

And the TGI (SF-539 CNS)?
The TGI was 6960 nM.

What about the GI50 (MCF7 breast) of the same molecule?
The GI50 was 229 nM.

What about the TGI (MCF7 breast) of the same molecule?
The TGI was 11100 nM.

And the GI50 (RPMI-8226 leukemia)?
The GI50 was 153 nM.

And the TGI (RPMI-8226 leukemia)?
Its TGI is 1140 nM.

And the GI50 (KM12 colon)?
The GI50 was 251 nM.

And the TGI (KM12 colon)?
The TGI was 6960 nM.

What about the GI50 (SNB-75 CNS) of the same molecule?
Its GI50 is 1360 nM.

And the TGI (SNB-75 CNS)?
The TGI was 7720 nM.

And the GI50 (MALME-3M melanoma)?
The GI50 was 1010 nM.

And the TGI (MALME-3M melanoma)?
Its TGI is 3940 nM.

And the GI50 (A549 NSCLC)?
Its GI50 is 630 nM.

And the TGI (A549 NSCLC)?
The TGI was 12400 nM.

And the GI50 (SNB-19 CNS)?
The GI50 was 1270 nM.

And the TGI (SNB-19 CNS)?
The TGI was 35200 nM.

And the GI50 (CAKI-1 renal)?
Its GI50 is 691 nM.

And the TGI (CAKI-1 renal)?
Its TGI is 5570 nM.

What about the GI50 (OVCAR-5 ovarian) of the same molecule?
The GI50 was 4770 nM.

And the TGI (OVCAR-5 ovarian)?
The TGI was greater than 50000 nM.

What about the GI50 (PC-3 prostate) of the same molecule?
Its GI50 is 161 nM.

What about the TGI (PC-3 prostate) of the same molecule?
The TGI was 2040 nM.

What about the GI50 (NCI-H522 lung) of the same molecule?
Its GI50 is 121 nM.

And the TGI (NCI-H522 lung)?
The TGI was 550 nM.

What about the GI50 (OVCAR-4 ovarian) of the same molecule?
Its GI50 is 691 nM.

What about the TGI (OVCAR-4 ovarian) of the same molecule?
The TGI was 3460 nM.

What about the GI50 (CCRF-CEM leukemia) of the same molecule?
The GI50 was 243 nM.

And the TGI (CCRF-CEM leukemia)?
The TGI was 7670 nM.

What about the GI50 (ACHN renal) of the same molecule?
Its GI50 is 234 nM.

What about the TGI (ACHN renal) of the same molecule?
Its TGI is 5180 nM.

What about the GI50 (U251 CNS) of the same molecule?
Its GI50 is 607 nM.

What about the TGI (U251 CNS) of the same molecule?
The TGI was 1910 nM.

And the GI50 (786-0 renal)?
The GI50 was 3180 nM.

And the TGI (786-0 renal)?
Its TGI is 13400 nM.

And the GI50 (M14 melanoma)?
The GI50 was 1140 nM.

What about the TGI (M14 melanoma) of the same molecule?
The TGI was 8350 nM.
